US10407422B2, “Triazolopyridine inhibitors of myeloperoxidase” (priority 2015, dated 2019)

How the values were obtained:
[1] = biological target: T1, myeloperoxidase (MPO) (Homo sapiens (Human), UniProt P05164); assay: MPO peroxidation assay (Amplex Red assay); type: biochemical; conditions: potency range class
Summary of the method: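 IC50 values come from a four-parameter fit of rates taken from the linear 180-540 s portion of a 15 min kinetic read of resorufin (Ex 535/Em 590 nm). Amplex Red (200 μM) plus 10 mM H2O2 was added after a 10 min room-temperature preincubation of inhibitor with 200 pM MPO and 40 nM H2O2 in 100 mM KPi, pH 7.4.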

[2] = biological target: T1, myeloperoxidase (MPO); assay: MPO chlorination assay (APF assay); type: biochemical; conditions: potency range class
Procedure: [formula] where A=minimal Y value (activity level of inhibited sample), B=maximal Y value (activity level of uninhibited sample), C=Log IC50, D=Hill Slope, x=concentration of inhibitor. MPO Chlorination Assay (APF Assay) MPO chlorination activity was measured in 100 mM KPi (pH 7.4) by utilizing the non-fluorescent reagent Aminophenyl fluorescein (APF, Invitrogen Cat. #A36003). APF is cleaved by (—OCl) to yield the fluorescent compound fluorescein. Reactions were carried out in 50 μL total volume by adding a 25 μL mixture of 200 pM myeloperoxidase and 120 mM NaCl to 100 nL inhibitor in 100% DMSO in a 384 well, non-binding surface clear bottom plate (Corning #3655). Enzyme, inhibitor, and chloride were preincubated for ten minutes at room temperature. After the ten minute preincubation, 25 μL of an APF mixture containing […], 120 mM NaCl and 10 μM H2O2 was added to the plate using the internal dispensing system of a Hammatsu FDSS 6000. Kinetic determinations were carried out immediately on the FDSS 6000 (3 minute kinetic read, 1 read every second, ex: 485 nm, em: 535 nm). IC50 values for inhibitors were calculated by taking the slope of the linear portion of the kinetic measurement (20 seconds to ˜80-120 secs). IC50 values were calculated by determining the slope of the linear portion of the kinetic trace […], and using that calculated slope to determine % inhibition occurring at each concentration of inhibitor using the following equation: [formula] where A=minimal Y value (activity level of inhibited sample), B=maximal Y value (activity level of uninhibited sample), C=Log IC50, D=Hill Slope, x=concentration of inhibitor. EPX Bromination Assay

T1 sequence (P05164 49-745): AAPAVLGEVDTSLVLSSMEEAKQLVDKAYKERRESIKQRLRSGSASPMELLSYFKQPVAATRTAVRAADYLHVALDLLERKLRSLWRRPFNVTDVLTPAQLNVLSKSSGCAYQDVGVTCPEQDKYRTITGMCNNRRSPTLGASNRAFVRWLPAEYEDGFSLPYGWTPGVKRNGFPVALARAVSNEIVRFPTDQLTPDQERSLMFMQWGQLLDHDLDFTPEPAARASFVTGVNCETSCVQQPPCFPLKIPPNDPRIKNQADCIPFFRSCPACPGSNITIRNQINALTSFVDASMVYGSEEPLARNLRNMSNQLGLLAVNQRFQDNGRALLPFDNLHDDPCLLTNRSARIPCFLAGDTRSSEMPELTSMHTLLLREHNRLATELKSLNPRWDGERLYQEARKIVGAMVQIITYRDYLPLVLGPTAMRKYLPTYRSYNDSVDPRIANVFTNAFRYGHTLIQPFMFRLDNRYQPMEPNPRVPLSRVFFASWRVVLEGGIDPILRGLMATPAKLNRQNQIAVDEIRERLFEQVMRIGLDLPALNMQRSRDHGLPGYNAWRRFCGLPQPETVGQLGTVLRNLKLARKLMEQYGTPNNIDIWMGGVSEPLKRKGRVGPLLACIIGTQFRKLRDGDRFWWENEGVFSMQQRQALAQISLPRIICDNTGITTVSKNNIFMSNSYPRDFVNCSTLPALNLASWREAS

| Structure (SMILES) | IC50 [1] | IC50 [2] |
| --- | --- | --- |
| Nc1cc(Cc2cnn(Cc3ccc(C(=O)NCc4ncc[nH]4)cc3)c2)c2nn[nH]c2n1 [Example 74, N-((1H-Imidazol-2-yl)methyl)-4-((4-((5-amino-3H-[1,2,3]triazolo[4,5-b]pyridin-7-yl)methyl)-H-pyrazol-1-yl)methyl)benzamide] | 1 to 100 nM | 101 to 999 nM |
| Nc1cc(Cc2cnn(Cc3ccc(C(=O)NCCN4CCOCC4)cc3)c2)c2nn[nH]c2n1 [Example 75, 4-{[4-({5-Amino-3H-[1,2,3]triazolo[4,5-b]pyridin-7-yl}methyl)-1H-pyrazol-1-yl]methyl}-N-[2-(morpholin-4-yl)ethyl]benzamide] | 101 to 999 nM | 101 to 999 nM |
| Nc1cc(Cc2cnn(Cc3ccc(C(=O)NCCO)cc3)c2)c2nn[nH]c2n1 [Example 76, 4-{[4-({5-Amino-3H-[1,2,3]triazolo[4,5-b]pyridin-7-yl}methyl)-1H-pyrazol-1-yl]methyl}-N-(2-hydroxyethyl)benzamide] | 1 to 100 nM | 101 to 999 nM |
| CN(C)CCN(C)C(=O)c1ccc(Cn2cc(Cc3cc(N)nc4[nH]nnc34)cn2)cc1 [Example 77, 4-{[4-({5-Amino-3H-[1,2,3]triazolo[4,5-b]pyridin-7-yl}methyl)-1H-pyrazol-1-yl]methyl}-N-[2-(dimethylamino)ethyl]-N-methylbenzamide] | 1 to 100 nM | 101 to 999 nM |
| Nc1cc(Cc2cnn(Cc3ccc(C(=O)NCc4ccn[nH]4)cc3)c2)c2nn[nH]c2n1 [Example 78, 4-{[4-({5-Amino-3H-[1,2,3]triazolo[4,5-b]pyridin-7-yl}methyl)-1H-pyrazol-1-yl]methyl}-N-(1H-pyrazol-5-ylmethyl)benzamide] | 1 to 100 nM | 101 to 999 nM |
| Nc1cc(Cc2cnn(Cc3ccc(C(=O)NCc4cn[nH]c4)cc3)c2)c2nn[nH]c2n1 [Example 79, 4-{[4-({5-Amino-3H-[1,2,3]triazolo[4,5-b]pyridin-7-yl}methyl)-1H-pyrazol-1-yl]methyl}-N-(1H-pyrazol-4-ylmethyl)benzamide] | 1 to 100 nM | 101 to 999 nM |
| Nc1cc(Cc2cnn(Cc3ccc(C(=O)NCc4ccccn4)cc3)c2)c2nn[nH]c2n1 [Example 80, 4-{[4-({5-Amino-3H-[1,2,3]triazolo[4,5-b]pyridin-7-yl}methyl)-1H-pyrazol-1-yl]methyl}-N-(pyridin-2-ylmethyl)benzamide] | 1 to 100 nM | 101 to 999 nM |
| Nc1cc(Cc2cnn(Cc3ccc(C(=O)NCc4ncn[nH]4)cc3)c2)c2nn[nH]c2n1 [Example 81, 4-{[4-({5-Amino-3H-[1,2,3]triazolo[4,5-b]pyridin-7-yl}methyl)-1H-pyrazol-1-yl]methyl}-N-(1H-1,2,4-triazol-5-ylmethyl)benzamide] | 1 to 100 nM | 101 to 999 nM |
| CN(Cc1ncc[nH]1)C(=O)c1ccc(Cn2cc(Cc3cc(N)nc4[nH]nnc34)cn2)cc1 [Example 82, 4-{[4-({5-Amino-3H-[1,2,3]triazolo[4,5-b]pyridin-7-yl}methyl)-1H-pyrazol-1-yl]methyl}-N-(1H-imidazol-2-ylmethyl)-N-methylbenzamide] | 1 to 100 nM | 101 to 999 nM |
| Nc1cc(Cc2cnn(Cc3ccc(C(=O)NCCc4cnc[nH]4)cc3)c2)c2nn[nH]c2n1 [Example 83, 4-{[4-({5-Amino-3H-[1,2,3]triazolo[4,5-b]pyridin-7-yl}methyl)-1H-pyrazol-1-yl]methyl}-N-[2-(1H-imidazol-4-yl)ethyl]benzamide] | 1 to 100 nM | 101 to 999 nM |
| Nc1cc(Cc2cnn(Cc3ccc(C(=O)N4CCC(O)C4)cc3)c2)c2nn[nH]c2n1 (stereo not drawn) [Example 84, 1-(4-{[4-({5-Amino-3H-[1,2,3]triazolo[4,5-b]pyridin-7-yl}methyl)-1H-pyrazol-1-yl]methyl}benzoyl)pyrrolidin-3-ol] | 101 to 999 nM | 101 to 999 nM |
| CN1CCN(C(=O)c2ccc(Cn3cc(Cc4cc(N)nc5[nH]nnc45)cn3)cc2)CC1 [Example 85, 7-[(1-{[4-(4-Methylpiperazine-1-carbonyl)phenyl]methyl}-1H-pyrazol-4-yl)methyl]-3H-[1,2,3]triazolo[4,5-b]pyridin-5-amine] | 1 to 100 nM | 101 to 999 nM |
| Nc1cc(Cc2cnn(Cc3ccc(C(=O)NCc4ccncc4)cc3)c2)c2nn[nH]c2n1 [Example 86, 4-{[4-({5-Amino-3H-[1,2,3]triazolo[4,5-b]pyridin-7-yl}methyl)-1H-pyrazol-1-yl]methyl}-N-(pyridin-4-ylmethyl)benzamide] | 1 to 100 nM | 101 to 999 nM |
| CC(CO)NC(=O)c1ccc(Cn2cc(Cc3cc(N)nc4[nH]nnc34)cn2)cc1 (stereo not drawn) [Example 87, 4-{[4-({5-Amino-3H-[1,2,3]triazolo[4,5-b]pyridin-7-yl}methyl)-1H-pyrazol-1-yl]methyl}-N-(1-hydroxypropan-2-yl)benzamide] | 1 to 100 nM | 101 to 999 nM |
| CCCNC(=O)c1ccc(Cn2cc(Cc3cc(N)nc4[nH]nnc34)cn2)cc1 [Example 88, 4-{[4-({5-Amino-3H-[1,2,3]triazolo[4,5-b]pyridin-7-yl}methyl)-1H-pyrazol-1-yl]methyl}-N-propylbenzamide] | 1 to 100 nM | 101 to 999 nM |
| CN(C)CCCNC(=O)c1ccc(Cn2cc(Cc3cc(N)nc4[nH]nnc34)cn2)cc1 [Example 89, 4-{[4-({5-Amino-3H-[1,2,3]triazolo[4,5-b]pyridin-7-yl}methyl)-1H-pyrazol-1-yl]methyl}-N-[3-(dimethylamino)propyl]benzamide] | 1 to 100 nM | 101 to 999 nM |
| NC(=O)CNC(=O)c1ccc(Cn2cc(Cc3cc(N)nc4[nH]nnc34)cn2)cc1 [Example 90, 2-[(4-{[4-({5-Amino-3H-[1,2,3]triazolo[4,5-b]pyridin-7-yl}methyl)-1H-pyrazol-1-yl]methyl}phenyl)formamido]acetamide] | 1 to 100 nM | 101 to 999 nM |
| Cc1cnc(CNC(=O)c2ccc(Cn3cc(Cc4cc(N)nc5[nH]nnc45)cn3)cc2)cn1 [Example 91, 4-{[4-({5-Amino-3H-[1,2,3]triazolo[4,5-b]pyridin-7-yl}methyl)-1H-pyrazol-1-yl]methyl}-N-[(5-methylpyrazin-2-yl)methyl]benzamide] | 1 to 100 nM | 101 to 999 nM |
| Nc1cc(Cc2cnn(Cc3ccc(C(=O)NCc4cnco4)cc3)c2)c2nn[nH]c2n1 [Example 92, 4-{[4-({5-Amino-3H-[1,2,3]triazolo[4,5-b]pyridin-7-yl}methyl)-1H-pyrazol-1-yl]methyl}-N-(1,3-oxazol-5-ylmethyl)benzamide] | 101 to 999 nM | 1000 to 10000 nM |
| Nc1cc(Cc2cnn(Cc3ccc(C(=O)NCc4cncnc4)cc3)c2)c2nn[nH]c2n1 [Example 93, 4-{[4-({5-Amino-3H-[1,2,3]triazolo[4,5-b]pyridin-7-yl}methyl)-1H-pyrazol-1-yl]methyl}-N-(pyrimidin-5-ylmethyl)benzamide] | 1 to 100 nM | 101 to 999 nM |
| Nc1cc(Cc2cnn(Cc3ccc(C(=O)NCc4ccc(=O)[nH]c4)cc3)c2)c2nn[nH]c2n1 [Example 94, 4-{[4-({5-Amino-3H-[1,2,3]triazolo[4,5-b]pyridin-7-yl}methyl)-1H-pyrazol-1-yl]methyl}-N-[(6-oxo-1,6-dihydropyridin-3-yl)methyl]benzamide] | 1 to 100 nM | 101 to 999 nM |
